# Experimental data: US8664277B2, “Compounds and methods for PKCθ inhibition” (Complegen Partners, LLC, priority 2008, dated 2014)
# Where two headings read alike, the source gives them in different places.
# Experiments:
# Format in all cases: cell-based
# Human PKC theta = biological target: T1, Human PKC theta (Homo sapiens, UniProt Q04759); assay: XenoGene yeast growth inhibition, yeast containing human PKC theta gene
# T1 construct: expressed in transfected cells; host or cells: yeast (XenoGene strain)
# T1 sequence (Q04759 whole entry): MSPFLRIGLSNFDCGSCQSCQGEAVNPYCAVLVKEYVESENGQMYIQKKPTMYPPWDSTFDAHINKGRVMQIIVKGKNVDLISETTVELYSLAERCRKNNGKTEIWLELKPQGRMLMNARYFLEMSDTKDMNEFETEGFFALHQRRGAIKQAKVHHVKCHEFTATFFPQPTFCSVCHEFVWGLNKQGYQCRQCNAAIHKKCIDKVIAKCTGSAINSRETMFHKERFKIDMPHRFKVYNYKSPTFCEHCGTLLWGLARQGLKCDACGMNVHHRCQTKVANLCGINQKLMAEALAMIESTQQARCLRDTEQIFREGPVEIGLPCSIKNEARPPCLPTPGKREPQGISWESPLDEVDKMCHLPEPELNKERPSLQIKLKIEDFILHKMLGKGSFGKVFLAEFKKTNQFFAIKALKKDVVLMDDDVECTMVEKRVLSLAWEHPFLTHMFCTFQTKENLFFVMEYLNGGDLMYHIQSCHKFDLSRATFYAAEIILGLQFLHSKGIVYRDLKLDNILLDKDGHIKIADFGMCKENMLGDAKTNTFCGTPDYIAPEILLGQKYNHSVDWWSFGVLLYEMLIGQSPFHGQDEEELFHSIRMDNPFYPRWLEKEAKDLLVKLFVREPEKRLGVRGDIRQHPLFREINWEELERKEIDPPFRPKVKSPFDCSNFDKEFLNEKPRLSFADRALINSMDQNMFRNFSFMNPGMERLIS
# Excerpt: Using the XenoGene™ system described within, compounds inhibiting PKCθ are identified. The XenoGene™ system is a technology developed and patented by CompleGen wherein genes (“XenoGenes”™) from a target organism (e.g. humans) are used to functionally replace essential genes of a simple organism (yeast). These modified yeast are used to select compounds that act specifically on the protein encoded by the target gene and eliminate compounds that are not specific. […]
# PKC eta = biological target: T2, PKC eta (Homo sapiens, UniProt P24723); assay: XenoGene counter-screen, PKC eta; details: inverse of (PKC-theta IC50)/(PKC-X IC50)
# T2 construct: expressed in transfected cells; host or cells: yeast (XenoGene strain)
# T2 sequence (P24723 whole entry): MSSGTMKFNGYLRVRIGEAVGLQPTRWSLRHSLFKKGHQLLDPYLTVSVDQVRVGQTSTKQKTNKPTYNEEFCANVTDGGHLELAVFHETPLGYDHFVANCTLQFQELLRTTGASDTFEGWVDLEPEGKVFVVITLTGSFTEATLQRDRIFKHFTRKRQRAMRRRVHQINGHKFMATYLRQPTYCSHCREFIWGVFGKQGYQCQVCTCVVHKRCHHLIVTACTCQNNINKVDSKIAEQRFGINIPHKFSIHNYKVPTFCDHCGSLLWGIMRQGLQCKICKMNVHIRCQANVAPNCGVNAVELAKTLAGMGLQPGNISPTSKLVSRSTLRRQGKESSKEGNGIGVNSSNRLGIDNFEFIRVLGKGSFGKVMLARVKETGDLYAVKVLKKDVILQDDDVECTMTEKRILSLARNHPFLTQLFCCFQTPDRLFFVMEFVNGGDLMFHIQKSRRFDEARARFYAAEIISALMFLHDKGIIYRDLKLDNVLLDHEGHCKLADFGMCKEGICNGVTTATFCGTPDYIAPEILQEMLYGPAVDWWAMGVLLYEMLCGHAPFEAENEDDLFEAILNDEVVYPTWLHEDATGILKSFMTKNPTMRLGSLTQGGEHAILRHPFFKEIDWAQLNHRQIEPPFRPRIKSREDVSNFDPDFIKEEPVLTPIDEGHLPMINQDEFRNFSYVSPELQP
# Method: (§1) To identify compounds as being selective PKC theta inhibitors the IC50 values are determined against XenoGene™ strains containing other XenoGenes™, especially certain other PKC genes (see Example 10).
# (§2) Human PKC theta gene (cDNA) was used to generate a XenoGene™ system as previously described (U.S. Pat. Nos. 6,998,261, 6,232,074), which was used to screen compounds in a chemical compound library. XenoGene™ systems used as counter-screens were constructed similarly using the gene for the appropriate counter-screen target. In particular, human genes (cDNA) encoding PKC delta, PKC eta and PKC epsilon were used to generate XenoGene™ systems.
# yeast PKC1 = biological target: T3, yeast PKC1 (Saccharomyces cerevisiae, UniProt P24583); assay: XenoGene counter-screen, yeast PKC1; details: inverse of (PKC-theta IC50)/(PKC-X IC50)
# T3 construct: endogenous in cells; host or cells: yeast control strain
# T3 sequence (P24583 1-1151): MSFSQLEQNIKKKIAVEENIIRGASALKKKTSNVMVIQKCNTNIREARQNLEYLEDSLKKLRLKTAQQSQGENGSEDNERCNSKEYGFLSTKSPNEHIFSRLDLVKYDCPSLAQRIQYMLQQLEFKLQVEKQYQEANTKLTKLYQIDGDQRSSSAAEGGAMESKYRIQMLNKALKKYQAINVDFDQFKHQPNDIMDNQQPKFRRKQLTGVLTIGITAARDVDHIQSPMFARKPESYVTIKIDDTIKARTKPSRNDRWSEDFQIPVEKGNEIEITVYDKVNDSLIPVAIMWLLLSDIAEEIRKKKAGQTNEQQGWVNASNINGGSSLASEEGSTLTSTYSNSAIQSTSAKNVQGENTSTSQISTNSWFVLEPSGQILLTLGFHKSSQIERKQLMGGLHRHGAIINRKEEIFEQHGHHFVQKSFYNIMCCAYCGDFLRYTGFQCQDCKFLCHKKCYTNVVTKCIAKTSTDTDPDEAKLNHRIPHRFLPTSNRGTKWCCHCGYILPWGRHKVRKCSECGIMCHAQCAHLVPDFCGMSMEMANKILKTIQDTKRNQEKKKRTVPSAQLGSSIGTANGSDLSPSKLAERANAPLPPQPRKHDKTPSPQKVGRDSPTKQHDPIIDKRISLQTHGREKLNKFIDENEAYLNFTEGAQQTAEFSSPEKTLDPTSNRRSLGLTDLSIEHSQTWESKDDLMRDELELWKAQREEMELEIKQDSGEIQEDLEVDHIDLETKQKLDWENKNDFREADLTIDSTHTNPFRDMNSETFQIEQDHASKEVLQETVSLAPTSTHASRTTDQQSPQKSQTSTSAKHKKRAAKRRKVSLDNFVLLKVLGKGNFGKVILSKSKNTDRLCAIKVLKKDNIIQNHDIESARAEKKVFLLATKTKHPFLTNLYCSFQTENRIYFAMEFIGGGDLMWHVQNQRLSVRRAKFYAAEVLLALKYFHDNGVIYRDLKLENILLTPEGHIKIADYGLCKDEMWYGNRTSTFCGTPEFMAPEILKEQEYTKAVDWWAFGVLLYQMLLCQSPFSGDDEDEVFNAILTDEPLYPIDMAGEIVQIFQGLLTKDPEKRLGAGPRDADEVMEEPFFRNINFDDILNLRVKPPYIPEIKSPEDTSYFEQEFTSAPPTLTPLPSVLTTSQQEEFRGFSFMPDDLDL
# Excerpt: Using the XenoGene™ system described within, compounds inhibiting PKCθ are identified. The XenoGene™ system is a technology developed and patented by CompleGen wherein genes (“XenoGenes”™) from a target organism (e.g. humans) are used to functionally replace essential genes of a simple organism (yeast). These modified yeast are used to select compounds that act specifically on the protein encoded by the target gene and eliminate compounds that are not specific. XenoGene™ constructs provide a very high throughput screening system that allows identification of compounds active on the function of the target protein in a cell under physiological conditions on “first-pass” screening and further, to selectively counter-screen against 200 human targets or more if necessary. […] The relative potencies of the active compounds is determined by titration to find the concentration of compound providing 50% inhibition of growth (IC50) against the yeast containing the target gene (Table 1).
# as §2
# PKC delta = biological target: T4, PKC delta (Homo sapiens, UniProt Q05655); assay: XenoGene counter-screen, PKC delta; details: inverse of (PKC-theta IC50)/(PKC-X IC50)
# T4 construct: expressed in transfected cells; host or cells: yeast (XenoGene strain)
# T4 sequence (Q05655 whole entry): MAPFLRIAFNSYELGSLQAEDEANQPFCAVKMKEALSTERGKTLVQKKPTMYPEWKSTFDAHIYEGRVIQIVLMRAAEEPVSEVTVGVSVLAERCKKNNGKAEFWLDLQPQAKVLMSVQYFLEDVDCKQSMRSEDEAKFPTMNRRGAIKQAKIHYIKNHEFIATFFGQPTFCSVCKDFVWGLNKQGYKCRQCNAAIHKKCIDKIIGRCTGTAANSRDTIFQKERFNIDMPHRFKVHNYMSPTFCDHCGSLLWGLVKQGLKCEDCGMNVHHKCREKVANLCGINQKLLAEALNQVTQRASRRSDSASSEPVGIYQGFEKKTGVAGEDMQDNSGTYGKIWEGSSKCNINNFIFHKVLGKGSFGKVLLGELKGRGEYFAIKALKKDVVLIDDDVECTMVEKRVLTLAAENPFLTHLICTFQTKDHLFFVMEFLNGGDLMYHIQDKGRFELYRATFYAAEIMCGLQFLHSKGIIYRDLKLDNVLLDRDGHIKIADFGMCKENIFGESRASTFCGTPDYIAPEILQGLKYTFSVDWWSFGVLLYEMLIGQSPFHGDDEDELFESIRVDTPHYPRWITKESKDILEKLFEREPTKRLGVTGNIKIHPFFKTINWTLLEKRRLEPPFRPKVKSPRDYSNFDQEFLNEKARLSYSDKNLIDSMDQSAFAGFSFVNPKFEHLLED
# Method: as §1, §2
# PKC epsilon = biological target: T5, PKC epsilon (Homo sapiens, UniProt Q02156); assay: XenoGene counter-screen, PKC epsilon; details: inverse of (PKC-theta IC50)/(PKC-X IC50)
# T5 construct: expressed in transfected cells; host or cells: yeast (XenoGene strain)
# T5 sequence (Q02156 1-737): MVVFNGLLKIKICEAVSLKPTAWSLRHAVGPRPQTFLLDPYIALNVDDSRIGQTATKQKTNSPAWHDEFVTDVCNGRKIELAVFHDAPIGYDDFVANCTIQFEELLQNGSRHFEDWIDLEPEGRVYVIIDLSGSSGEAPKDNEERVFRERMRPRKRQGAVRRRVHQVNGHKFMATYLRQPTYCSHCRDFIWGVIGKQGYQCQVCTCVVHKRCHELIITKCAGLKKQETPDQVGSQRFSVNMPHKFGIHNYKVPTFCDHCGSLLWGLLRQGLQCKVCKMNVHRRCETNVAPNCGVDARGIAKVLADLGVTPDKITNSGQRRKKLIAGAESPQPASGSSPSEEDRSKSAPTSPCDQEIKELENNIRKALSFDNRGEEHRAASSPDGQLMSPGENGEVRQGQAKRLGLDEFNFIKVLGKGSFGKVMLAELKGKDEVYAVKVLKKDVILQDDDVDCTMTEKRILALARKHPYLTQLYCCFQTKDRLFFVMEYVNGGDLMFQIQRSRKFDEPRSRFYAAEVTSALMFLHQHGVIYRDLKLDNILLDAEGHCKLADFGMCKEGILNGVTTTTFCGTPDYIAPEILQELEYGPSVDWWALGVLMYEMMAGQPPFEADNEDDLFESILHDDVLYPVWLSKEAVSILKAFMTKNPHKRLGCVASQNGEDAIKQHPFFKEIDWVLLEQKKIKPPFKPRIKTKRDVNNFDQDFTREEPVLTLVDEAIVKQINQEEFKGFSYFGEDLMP
# Method: as §1, §2
# [1] = 50% inhibition of growth of yeast containing the target gene, read-out: IC50
# [2] = XenoGene system, read-out: PKC-theta IC50
SMILES,IC50 (Human PKC theta; [1]),further results
Nc1ccc(Oc2ccccc2C(=O)O)cc1 [Compound 553],> 10000 nM,–
CCC(C)(C)c1ccc(Oc2ccc(N)cc2)cc1 [Compound 730],< 1000 nM,–
Nc1ccc(Oc2ccc(C(F)(F)F)cc2)cc1 [Compound 733],1000 to 10000 nM,–
CC(C)(C)c1ccc(Sc2ccc(N)cc2)cc1 [Compound 740],< 1000 nM,Selectivity for PKC-theta v. PKC-eta (PKC eta): 3.0; Selectivity for PKC-theta v. yeast PKC1 (yeast PKC1): 80; Selectivity for PKC-theta v. PKC-delta (PKC delta): 26; Selectivity for PKC-theta v. PKC-epsilon (PKC epsilon): 12; IC50 (Human PKC theta; [2]): 50 nM
Nc1ccc(Sc2ccc(C(F)(F)F)cc2)cc1 [Compound 741],< 1000 nM,Selectivity for PKC-theta v. PKC-eta (PKC eta): 4.0; Selectivity for PKC-theta v. yeast PKC1 (yeast PKC1): 32; Selectivity for PKC-theta v. PKC-delta (PKC delta): 8.0; Selectivity for PKC-theta v. PKC-epsilon (PKC epsilon): 16; IC50 (Human PKC theta; [2]): 250 nM
CC(C)c1ccc(Oc2ccc(N)cc2)cc1 [Compound 742],< 1000 nM,–
CCCc1ccc(Oc2ccc(N)cc2)cc1 [Compound 745],< 1000 nM,–
Nc1ccc(Oc2ccc(C(F)(F)F)cc2Br)cc1 [Compound 747],< 1000 nM,–
CC(C)(C)c1ccc(S(=O)(=O)c2ccc(N)cc2)cc1 [Compound 749],1000 to 10000 nM,–
CC(C)(C)c1ccc(S(=O)(=O)c2ccc(N)cc2)cc1 [Compound 750],> 10000 nM,–
Nc1ccc([S+]([O-])c2ccc(C(F)(F)F)cc2)cc1 (centres unmarked) [Compound 751],> 10000 nM,–
Nc1ccc(S(=O)(=O)c2ccc(C(F)(F)F)cc2)cc1 [Compound 753],1000 to 10000 nM,–
Nc1ccc(Oc2ccc(C3CCCC3)cc2)cc1 [Compound 761],< 1000 nM,–
